Laboratory results taken from patent US20040009899A1, “Treating dominant disorders” (priority 2002, published 2004).

Experiments:
Format in all cases: in vivo, mouse
[1] = system: human HD transgene; assay: Western immunoblot of human HD transgene (htt) expression in PNA-treated R6/1 mice
Description: Cannulation and microsurgery—method 1: B6CBA, R6/1, and R6/2 mice were obtained from The Jackson Laboratory (Bar Harbor, Me.). Mice were anesthetized via intraperitoneal (i.p.) injection with 100 mg/kg of a ketamine/xylazine solution containing 8 mg/mL ketamine and 1 mg/mL xylazine in 0.9% saline. Once anesthetized, each mouse was cannulated. Each anesthetized mouse was placed in a Stoelting Stereotaxic Frame with a mouse adapter (Stoelting Instruments, Wood Dale, Ill.). An incision was made using a scalpel, and the skin and tissue were pulled back with swabs to reveal the skull. The cannulation site was positioned for optimum access to the ventricle, at coordinates AP −0.2 mm, Horiz −1 mm from bregma. A cannula entry port and two bone screw ports were opened in the skull using a Dremel Flex Shaft Drill (Stoelting Instruments) with a 2.1 mm burr for the guide cannula port and a 0.7 mm burr for the bone screws (Fine Science Tools, Foster City, Calif.). Two 4.0 mm long bone screws (0.85 diameter) were placed far enough into the bone screw ports to fasten securely. After placing the bone screws, a cannula system (Plastics One, Roanoke, Va.) including a guide cannula (C315Gs-5/Spc), a dummy cannula (C313Dcs-5Spc), an injection cannula (C3151S-5.2/Spc), and a connector assembly (C313C) was placed in the guide cannula port. The guide cannula was positioned 1.5 mm into the brain using a stereotaxic needle and was secured to the bone screws and incision with dental cement. Once the dental cement hardened, the stereotaxic needle was removed and both the injection cannula and dummy cannula were placed within the guide cannula and secured to the connector assembly. Proper cannula placement was confirmed in several mice by injecting bromophenol blue dye into the ventricular space and noting that only the ventricle was stained. […]
Following the treatment period, mice were anesthetized with ether and sacrificed by cervical dislocation. […] Following centrifugation, the supernatants were removed and protein concentrations were quantified by Bradford assays using a BSA standard. […]

[2] = system: R6/2 mice; assay: Bar test to assess motor skill; conditions: compared to untreated or saline treated R6/2 mice
Source text: Bar test to assess motor skill: Each mouse was held by its tail and allowed to grasp a bar (0.25 cm in diameter, 60 cm long) suspended 30 cm above a padded bench. After the mouse had firmly grasped the bar, the test was begun by releasing its tail. The mouse was allowed two minutes to “escape” by climbing along the bar to one of the bar supports. The mouse was given both performance and time ratings. Performance ratings were based on the following scale: 0, unable to hold bar; 1, holds bar, unable to bring hind limbs to bar; 2, holds bar, draws hind limbs to bar (i.e., 3 paws firmly on bar); 3, holds bar, moves along bar (i.e., moves at least 2 inches in a coordinated manner along bar); 4, escapes (i.e., mouse touches a bar support with one paw). Time ratings were based on the following scale: 0, unable to hold bar (0-3 seconds); 1, holds bar for 4-30 seconds; 2, holds bar for 31-60 seconds; 3, holds bar for 61-90 seconds; 4, holds bar for 91-120 seconds. If the mouse had not reached one of the bar supports by the end of the two minute test period it was removed from the bar. […]
At 9 weeks of age, the mice in each group received saline (group 1) or HDs at 2.0 mg/kg, 5.0 mg/kg, or 20.0 mg/kg (groups 2, 3, and 4, respectively) by i.p. injection every 48 hours. […] Weight stability, clasping behavior, motility, and motor skill were assessed weekly during the treatment period. […]

[3] = system: R6/2 mice; assay: Brain weight / brain atrophy of treated R6/2 mice
Description: Experiments were conducted to determine whether PNA-mediated inhibition of mutant huntingtin expression increased survival and/or reversed features of pathophysiology. R6/2 and non-transgenic mice were divided into two groups of three to five mice each, and treated with either HDs or ACSF for approximately ten weeks, beginning at five to six weeks of age. Treated animals received a dose of 0.15 mg/kg of the HDs PNA oligomer, administered by continuous infusion through an Alzet pump. All ACSF-treated transgenic mice died by three months of age.
At 9 weeks of age, the mice in each group received saline (group 1) or HDs at 2.0 mg/kg, 5.0 mg/kg, or 20.0 mg/kg (groups 2, 3, and 4, respectively) by i.p. injection every 48 hours. The injections continued through 13 weeks of age (i.e., treatment for […]). Weight stability, clasping behavior, motility, and motor skill were assessed weekly during the treatment period. At the time of death or after the treatment period, the brain of each mouse was removed using standard methods. The brains were divided into hemispheres, and one hemisphere of each brain was saved for protein and mRNA analysis. The remaining hemispheres were fixed directly in 10% formalin for 5-7 days. After fixing, the brain hemispheres were weighed individually and processed for sectioning and pathophysiology.

Q: With “HDs: sense PNA oligomer, 14 residues, 5′-GGACTGCCGTGCCG-3′ (SEQ ID NO:3), specific for the expanded human HD allele (all peptide nucleic acid (PNA))” as the substance, how does the “effectiveness at inhibiting transgene expression relative to random, scrambled PNA” value ([1]; 25 μg into the ventricle every other day for 4 or 6 days) read?
A: significantly more effective

Q: What about the “effect on expression of the human transgene in the liver” value ([1]; liver, direct injection into the brain, 4 or 6 days) of the same substance?
A: little effect

Q: And the “inhibition of human HD transgene expression” value ([1]; striatum, 1 μL of 25 μg/μL into the ventricle every other day for 4 or 6 days, compared to untreated R6/1 controls)?
A: dramatic inhibition

Q: What about the “motor skill (bar test)” value ([2]; 5.0 mg/kg i.p. every 48 hours) of the same substance?
A: increased motor skill

Q: What about the “motor skill (bar test)” value ([2]; 20.0 mg/kg i.p. every 48 hours) of the same substance?
A: increased motor skill

Q: What about the “general brain atrophy typical of untreated R6/2 mice” value ([3]; R6/2 mice, 0.15 mg/kg continuous infusion by Alzet pump) of the same substance?
A: did not display the general brain atrophy

Q: And the “recovery in brain hemisphere weight as compared to untreated non-transgenic mice” value ([3]; R6/2 mice, 20.0 mg/kg i.p. every 48 hours)?
A: greatest degree of recovery

Q: What about the brain hemisphere weight ([3]; R6/2 mice, all doses (2.0, 5.0, 20.0 mg/kg i.p. every 48 hours), dose dependent effect) of the same substance?
A: greater than the weights of brain hemispheres from untreated R6/2 mice

Q: What about the brain weight ([3]; two non-surviving treated R6/2 mice, 0.15 mg/kg continuous infusion by Alzet pump) of the same substance?
A: increased brain weight
